Assay results as given in PMC7429357 (Journal of medicinal chemistry, 2020).
Like-named read-outs stand apart in the source and are kept apart here.

Key:
NTMT1 [1] = target: T1, NTMT1 (Homo sapiens, UniProt Q9BV86); test: SAHH-coupled fluorescence assay; assay type: biochemical; details: for fold activity decrease compared to respective NAH-GPKRIA compound: 5 vs 1, 6 vs 2; for fold decrease in IC50 activity compared to 3: 10 min preincubation
T1 sequence (Q9BV86 1-223): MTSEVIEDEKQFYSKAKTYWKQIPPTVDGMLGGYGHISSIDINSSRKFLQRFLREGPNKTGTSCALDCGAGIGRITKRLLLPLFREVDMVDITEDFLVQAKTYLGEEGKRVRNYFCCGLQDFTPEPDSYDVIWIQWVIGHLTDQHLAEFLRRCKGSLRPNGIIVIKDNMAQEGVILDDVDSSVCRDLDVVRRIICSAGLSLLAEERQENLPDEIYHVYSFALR

NTMT1 [2] = details: cited from earlier work
NTMT1 [3] = details: MALDI-MS based assay; cited from earlier work
other methyltransferases = details: cited from earlier work
[4] = target: nicotinamide N-methyltransferase (NNMT) (Homo sapiens, UniProt P40261); details: at 100 μM
Chain of nicotinamide N-methyltransferase (NNMT) (P40261 whole entry, species assumed): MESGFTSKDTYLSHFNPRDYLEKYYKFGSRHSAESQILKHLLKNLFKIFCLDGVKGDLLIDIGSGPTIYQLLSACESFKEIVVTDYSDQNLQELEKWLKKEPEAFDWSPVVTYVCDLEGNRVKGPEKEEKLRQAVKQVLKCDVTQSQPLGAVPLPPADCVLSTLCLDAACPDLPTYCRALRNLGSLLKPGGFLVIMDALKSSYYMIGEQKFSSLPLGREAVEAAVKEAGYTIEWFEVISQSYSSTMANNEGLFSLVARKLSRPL

[5] = target: Trypanosoma brucei protein arginine methyltransferase 7 (TbPRMT7) (Trypanosoma brucei brucei, UniProt Q582G4); test: biochemical
Chain of Trypanosoma brucei protein arginine methyltransferase 7 (TbPRMT7) (Q582G4 whole entry): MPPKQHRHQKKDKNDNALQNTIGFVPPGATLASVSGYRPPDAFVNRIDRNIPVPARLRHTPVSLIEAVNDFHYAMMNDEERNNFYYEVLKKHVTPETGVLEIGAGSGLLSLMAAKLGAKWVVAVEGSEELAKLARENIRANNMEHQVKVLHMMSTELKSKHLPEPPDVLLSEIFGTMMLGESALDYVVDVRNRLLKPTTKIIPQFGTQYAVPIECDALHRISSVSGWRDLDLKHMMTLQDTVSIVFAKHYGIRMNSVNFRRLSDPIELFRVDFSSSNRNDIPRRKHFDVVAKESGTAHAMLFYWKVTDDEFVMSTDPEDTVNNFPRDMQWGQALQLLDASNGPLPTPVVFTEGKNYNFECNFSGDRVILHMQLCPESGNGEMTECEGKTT

NTMT1 [6] = target: T1, NTMT1; test: MALDI-MS methylation inhibition assay; assay type: biochemical; details: 10 min preincubation, 20 min
[7] = target: euchromatic histone-lysine N-methyltransferase 2 (G9a) (Homo sapiens, UniProt Q96KQ7); details: at 100 μM
Chain of euchromatic histone-lysine N-methyltransferase 2 (G9a) (Q96KQ7 whole entry, species assumed, the tested form may be a part): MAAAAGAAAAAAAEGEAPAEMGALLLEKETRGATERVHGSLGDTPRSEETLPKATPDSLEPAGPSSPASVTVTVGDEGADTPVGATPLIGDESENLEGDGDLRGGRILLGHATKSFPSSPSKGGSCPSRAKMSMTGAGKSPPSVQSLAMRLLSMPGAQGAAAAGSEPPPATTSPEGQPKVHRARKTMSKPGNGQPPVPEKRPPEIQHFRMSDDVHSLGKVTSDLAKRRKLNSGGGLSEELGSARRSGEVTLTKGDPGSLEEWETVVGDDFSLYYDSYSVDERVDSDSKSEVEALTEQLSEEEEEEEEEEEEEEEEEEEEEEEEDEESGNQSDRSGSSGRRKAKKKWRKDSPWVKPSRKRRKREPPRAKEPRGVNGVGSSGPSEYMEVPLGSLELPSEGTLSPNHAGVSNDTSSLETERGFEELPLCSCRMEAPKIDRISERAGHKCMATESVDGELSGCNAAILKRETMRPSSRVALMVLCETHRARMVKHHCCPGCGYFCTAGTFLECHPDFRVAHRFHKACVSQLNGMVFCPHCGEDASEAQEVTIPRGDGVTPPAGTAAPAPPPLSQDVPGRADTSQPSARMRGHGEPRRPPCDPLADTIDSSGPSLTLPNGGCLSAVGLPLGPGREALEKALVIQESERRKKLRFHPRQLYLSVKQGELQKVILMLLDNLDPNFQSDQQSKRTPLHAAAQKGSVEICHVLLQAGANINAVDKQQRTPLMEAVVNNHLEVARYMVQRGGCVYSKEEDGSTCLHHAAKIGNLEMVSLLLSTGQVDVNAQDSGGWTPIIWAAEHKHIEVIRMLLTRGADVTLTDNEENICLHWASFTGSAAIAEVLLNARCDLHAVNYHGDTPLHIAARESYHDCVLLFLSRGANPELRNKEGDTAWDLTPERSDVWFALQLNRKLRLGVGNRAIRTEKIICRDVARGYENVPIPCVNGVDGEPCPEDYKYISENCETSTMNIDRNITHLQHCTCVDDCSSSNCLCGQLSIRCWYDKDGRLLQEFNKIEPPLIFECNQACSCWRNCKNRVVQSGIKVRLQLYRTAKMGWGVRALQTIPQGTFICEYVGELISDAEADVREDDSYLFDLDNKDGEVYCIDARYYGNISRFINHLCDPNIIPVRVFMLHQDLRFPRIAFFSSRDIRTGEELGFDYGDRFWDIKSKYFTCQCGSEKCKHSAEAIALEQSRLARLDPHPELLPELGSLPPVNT

[8] = target: SET domain-containing protein 7 (SETD7) (Homo sapiens, UniProt Q8WTS6); details: at 100 μM
Chain of SET domain-containing protein 7 (SETD7) (Q8WTS6 whole entry, species assumed, the tested form may be a part): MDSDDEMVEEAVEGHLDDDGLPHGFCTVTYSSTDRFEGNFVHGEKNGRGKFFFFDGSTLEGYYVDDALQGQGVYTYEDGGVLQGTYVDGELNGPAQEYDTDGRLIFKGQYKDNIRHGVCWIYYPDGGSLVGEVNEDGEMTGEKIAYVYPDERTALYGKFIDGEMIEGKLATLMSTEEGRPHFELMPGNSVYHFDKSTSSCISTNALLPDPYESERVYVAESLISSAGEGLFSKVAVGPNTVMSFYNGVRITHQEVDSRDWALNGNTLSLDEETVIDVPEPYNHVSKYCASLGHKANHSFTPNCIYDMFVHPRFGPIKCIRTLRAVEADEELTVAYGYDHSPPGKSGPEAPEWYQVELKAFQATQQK

NTMT1 [9] = target: T1, NTMT1

## N=C(N)NCCC[C@H](NC(=O)[C@H](CCCCN)NC(=O)[C@@H]1CCCN1C(=O)CNCCN(CC[C@H](N)C(=O)O)C[C@H]1O[C@@H](n2cnc3c(N)ncnc32)[C@H](O)[C@@H]1O)C(N)=O [Compound 5, NAH-C2-GPKR]
NTMT1 [1]
  fold activity decrease compared to respective NAH-GPKRIA compound: < 2 fold

## NAH-C3-GPRRRS
NTMT1 [2]
  IC50: 0.94 ± 0.16 µM

## N=C(N)NCCC[C@H](NC(=O)[C@H](CCCCN)NC(=O)[C@@H]1CCCN1C(=O)CNCCCN(CC[C@H](N)C(=O)O)C[C@H]1O[C@@H](n2cnc3c(N)ncnc32)[C@H](O)[C@@H]1O)C(N)=O [Compound 6, NAH-C3-GPKR]
NTMT1 [1]
  fold activity decrease compared to respective NAH-GPKRIA compound: < 2 fold

## N=C(N)NCCC[C@H](NC(=O)[C@H](CCCCN)NC(=O)[C@@H]1CCCN1C(=O)CNCCCCN(CC[C@H](N)C(=O)O)C[C@H]1O[C@@H](n2cnc3c(N)ncnc32)[C@H](O)[C@@H]1O)C(N)=O [Compound 7, NAH-C4-GPKR]
NTMT1 [1]
  fold better activity than 5: 4 fold
  fold better activity than 6: 2 fold

## NAH-C3-PPKRIA
NTMT1 [3]
  IC50: 0.035 ± 0.002 µM
Other methyltransferases
  selectivity against other methyltransferases: more than 100 fold

## CC[C@H](C)[C@H](NC(=O)[C@H](CCCNC(=N)N)NC(=O)[C@H](CCCCN)NC(=O)[C@@H]1CCCN1C(=O)CNCCCCN(CC[C@H](N)C(=O)O)C[C@H]1O[C@@H](n2cnc3c(N)ncnc32)[C@H](O)[C@@H]1O)C(=O)N[C@@H](C)C(N)=O [Compound 3, NAH-C4-GPKRIA]
[4]
  inhibitory activity: barely showed inhibitory activity
[5]
  inhibition at 33 µM: < 50%
NTMT1 [6]; 50 nM compound
  tri-methylation of GPKRIA peptide: substantially reduced
NTMT1 [6]; 200 nM compound
  tri-methylation of GPKRIA peptide: barely detected
[7]
  inhibitory activity: barely showed inhibitory activity
[8]
  inhibitory activity: barely showed inhibitory activity

## CC[C@H](C)[C@H](NC(=O)[C@H](CCCNC(=N)N)NC(=O)[C@H](CCCCN)NC(=O)[C@@H]1CCCN1C(=O)CNCCCN(CC[C@H](N)C(=O)O)C[C@H]1O[C@@H](n2cnc3c(N)ncnc32)[C@H](O)[C@@H]1O)C(=O)N[C@@H](C)C(N)=O [Compound 2, NAH-C3-GPKRIA]
NTMT1 [1]
  fold decrease in IC50 activity compared to 3: 1.5 fold

## CC[C@H](C)[C@H](NC(=O)[C@H](CCCNC(=N)N)NC(=O)[C@H](CCCCN)NC(=O)[C@@H]1CCCN1C(=O)CNCCN(CC[C@H](N)C(=O)O)C[C@H]1O[C@@H](n2cnc3c(N)ncnc32)[C@H](O)[C@@H]1O)C(=O)N[C@@H](C)C(N)=O [Compound 1, NAH-C2-GPKRIA]
NTMT1 [9]
  fold decrease in Ki, app in comparison with 3: 40 fold
NTMT1 [1]
  fold decrease in IC50 activity compared to 3: 3 fold
